Read-outs that look alike come from different tables or passages of the source.
Columns and labels:
Assay in all cases: stopped-flow CO2 hydrase assay
Type in all cases: biochemical
[1] = target: T1, hCA IX (Homo sapiens, UniProt Q16790)
T1 construct: gene CA9; recombinant, obtained in house
Text: stopped-flow CO2 hydrase assay on hCA IX

[2] = target: T2, hCA I (Homo sapiens, UniProt P00915)
T2 construct: gene CA1; recombinant, obtained in house
Text: stopped-flow CO2 hydrase assay on hCA I

[3] = target: T3, hCA II (Homo sapiens, UniProt P00918); details: read-out: KI (μM) ^a / hCA I
T3 construct: gene CA2; recombinant, obtained in house
Text: stopped-flow CO2 hydrase assay on hCA II

[4] = target: T4, hCA XII (Homo sapiens, UniProt O43570)
T4 construct: gene CA12; recombinant, obtained in house
Text: stopped-flow CO2 hydrase assay on hCA XII

[5] = pH […] ([…] Hepes), […] Na2SO4, […] min preincubation at room temperature

T4 sequence (O43570 30-289 limits assumed): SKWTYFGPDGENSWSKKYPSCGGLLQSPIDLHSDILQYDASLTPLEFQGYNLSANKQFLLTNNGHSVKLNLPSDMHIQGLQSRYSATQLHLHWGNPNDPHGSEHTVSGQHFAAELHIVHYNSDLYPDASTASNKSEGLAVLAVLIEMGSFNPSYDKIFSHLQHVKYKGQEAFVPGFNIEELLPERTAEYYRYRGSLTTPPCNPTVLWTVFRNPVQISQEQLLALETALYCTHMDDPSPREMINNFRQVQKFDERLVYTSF
T2 sequence (P00915 2-261): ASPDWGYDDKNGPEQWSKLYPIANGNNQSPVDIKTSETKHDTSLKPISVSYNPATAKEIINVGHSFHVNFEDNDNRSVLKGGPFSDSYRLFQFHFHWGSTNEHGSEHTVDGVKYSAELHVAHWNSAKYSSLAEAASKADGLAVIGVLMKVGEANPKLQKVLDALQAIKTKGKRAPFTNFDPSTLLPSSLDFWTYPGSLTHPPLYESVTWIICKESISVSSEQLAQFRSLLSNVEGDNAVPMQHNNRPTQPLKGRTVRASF

Ki [1, 5] [µM]	Ki [2, 5] [µM]	Ki [3, 5] [µM]	Ki [4, 5] [µM]	Ki [1] [µM]	Ki [2] [µM]	Ki [3] [µM]	Ki [4] [µM]	Compound
0.326	> 100	> 100	0.087	–	–	–	–	N-(3-Morpholinopropyl)-2-oxo-2H-pyran-5-carboxamide [compound 15]
–	–	–	–	0.281	> 100	> 100	0.081	O=C(Nc1ccccc1I)c1ccc(=O)oc1 [compound 10, N-(2-Iodophenyl)-2-oxo-2H-pyran-5-carboxamide]
–	–	–	–	0.098	> 100	> 100	0.086	O=C(NC1CCCCC1)c1ccc(=O)oc1 [compound 14, N-Cyclohexyl-2-oxo-2H-pyran-5-carboxamide]
–	–	–	–	3	> 100	> 100	0.7	O=C(Nc1ccccc1)c1ccc(=O)oc1 [compound 2, 2-Oxo-N-phenyl-2H-pyran-5-carboxamide]
–	–	–	–	0.082	> 100	> 100	0.089	O=C(Nc1ccc(Br)cc1)c1ccc(=O)oc1 [compound 9, N-(4-Bromophenyl)-2-oxo-2H-pyran-5-carboxamide]
–	–	–	–	0.146	> 100	> 100	0.08	O=C(Nc1ccccc1Cc1ccccc1)c1ccc(=O)oc1 [compound 12, N-(2-Benzylphenyl)-2-oxo-2H-pyran-5-carboxamide]
–	–	–	–	2.9	> 100	> 100	0.8	Cc1ccc(NC(=O)c2ccc(=O)oc2)cc1 [compound 3, 2-Oxo-N-(p-tolyl)-2H-pyran-5-carboxamide]
–	–	–	–	0.315	> 100	> 100	0.265	COc1cccc(NC(=O)c2ccc(=O)oc2)c1 [compound 7, N-(3-Methoxyphenyl)-2-oxo-2H-pyran-5-carboxamide]
–	–	–	–	0.083	> 100	> 100	0.076	O=C(Nc1ccc(-c2ccccc2)cc1)c1ccc(=O)oc1 [compound 11, N-([1,1′-Biphenyl]-4-yl)-2-oxo-2H-pyran-5-carboxamide]
–	–	–	–	0.174	> 100	> 100	0.09	Cc1cccc(NC(=O)c2ccc(=O)oc2)c1 [compound 4, 2-Oxo-N-(m-tolyl)-2H-pyran-5-carboxamide]
–	–	–	–	3.69	> 100	> 100	0.094	O=C(Nc1cccc2ccccc12)c1ccc(=O)oc1 [compound 13, N-(Naphthalen-1-yl)-2-oxo-2H-pyran-5-carboxamide]
–	–	–	–	3.1	> 100	> 100	0.7	COc1ccc(NC(=O)c2ccc(=O)oc2)cc1 [compound 6, N-(4-Methoxyphenyl)-2-oxo-2H-pyran-5-carboxamide]
–	–	–	–	3.2	> 100	> 100	0.7	O=C(Nc1ccc(Cl)cc1)c1ccc(=O)oc1 [compound 8, N-(4-Chlorophenyl)-2-oxo-2H-pyran-5-carboxamide]
–	–	–	–	0.073	> 100	> 100	0.083	O=C(O)c1ccc(=O)oc1 [compound 1, coumalic acid]
–	–	–	–	0.273	> 100	> 100	0.068	CC(C)c1ccc(NC(=O)c2ccc(=O)oc2)cc1 [compound 5, N-(4-Isopropylphenyl)-2-oxo-2H-pyran-5-carboxamide]
